Laboratory results taken from US20240124467A1, “FUSED PYRIMIDINE COMPOUNDS AS INHIBITORS OF MENIN-MLL INTERACTION” (Biomea Fusion, Inc., priority 2020, published 2024).
Where two headings read alike, the source gives them in different places.

Tests used:
Assay type in all cases: cell-based
[1] = tested on: K-562; assay: Cell proliferation inhibition (CellTiter-Glo), K-562 cells; details: Homo sapiens, K-562 (BCR-ABL)
Protocol: (§1) The present example evaluates the ability of compounds described herein, inhibitors of Menin/MLL interaction, to inhibit cell proliferation. The proliferation inhibitory effect was investigated in human MLL-leukemia cells selected on the bases of MLL fusion proteins and listed in the table below.
(§2) ATP is present in all metabolically active cells and is considered as a marker for cell viability and proliferation. The metabolic cell activity was determined using the CellTiter-Glo kit from Promega, an ATP monitoring system based on the production of luminescence by the reaction of ATP with added UltraGlo® recombinant luciferase (Kawano et al., 2016, PLOS One, 8:11(7):e0158888), according to the supplier's experimental recommendations. The assay is based on a 96 well plate format. All experiments were carried out in duplicate in one test occasion.
(§3) Test items were dissolved at 20 mM in DMSO with purity ≥99.9% (Sigma catalog no. D8418) and stored at −20° C. Cells were maintained in RPMI-1640 medium (Invitrogen catalog no. 618700) supplemented with 10% of Heat Inactivated FBS (Invitrogen catalog no. 10500) and 1% Pen-Strep (Invitrogen catalog no. 15140) and cultured at 37° C. in a humidified incubator with 5% CO2. Cell lines were grown in suspension and the cell density was maintained in a range of 5×10^4-1×10^6 viable cells/ml where possible. Cells were pelleted at 130 g×5 min.
(§4) Serial dilutions of compounds 1 to 3 in DMSO 100% were prepared starting from a 2.5 mM solutions (prepared by diluting 1:8 the 20 mM stock solution) to generate a 7 point concentration response curve (CRC). Seven concentrations of test compounds (e.g., 5.00×10^−6-1.67×10^−6-5.56×10^−7-1.85×10^−7-6.17×10^−8-2.06×10^−8-6.86×10^−9 M) were assessed in duplicate in an individual test occasion in parallel in the selected cell lines. KO-539 was used as a reference compound and tested in duplicate at seven similar concentrations. 100% of proliferation was represented by the untreated cells (0.2% DMSO).
(§5) Cell proliferation inhibition was monitored at both the following end points: Day 4 (T4) and Day 7 (T7). For the appropriate cell density during the exponential cell growth and re-supply with fresh compound solution at T4, cells were diluted (1:4) with fresh medium containing the compound concentration (1×).
(§6) For each plate to test, one 0.4 μL copy plate and four 0.3 μL copy plates were stamped into 96-well plates not treated for cell adhesion (Sarstedt—cat. no. 82.1581.001) by acoustic liquid handling (Echo) at a concentration which was 500 fold the final assay concentration. Stamped plates were stored at −20° C.
(§7) On Day 0, the day of the experiment cell line suspensions were counted by Cell Viability Analyser, Vi-CELL (Beckman Coulter AY15292), and diluted with fresh medium to obtain the following cell densities: K-562 500 c/ml, MOLM-13 1,000 c/ml, MV4-11 10,000 c/ml, OCI-AML-3 500 c/ml, and U-937 500-1,000 c/ml. 200 μL/well and 150 μL/well of cell suspension were added into the 0.4 μL/well and 0.3 μL/well compound plates, respectively. Cell plate containing 200 μL/well suspension were incubated at 37° C. in a humidified incubator with 5% CO2. From each well of the 150 μL/well cell assay plate, 100 μL were harvested and transferred into a 96-well Optiplate (Perkin Elmer, cat. no. 6005290). Cell viability was measured as described below.
(§8) On Day 4, 150p/well of fresh medium was added into a new 0.3 μL/well copy compound plates. From each well of the 200 μL/well cell assay plate, 100 μL was sampled for the cell viability measurement as described below. 50p was harvested and added to the 150p/well compound plate prepared as described in the first point to dilute 1:4 the cell suspension. The cell assay plate diluted and containing 200 μL/well suspension was incubated at 37° C. in a humidified incubator with 5% CO2.
(§9) On Day 4, 150p/well of fresh medium was added into a new 0.3 μL/well copy compound plates. […]

[2] = tested on: MOLM-13; assay: Cell proliferation inhibition (CellTiter-Glo), MOLM-13 cells; details: Homo sapiens, MOLM-13 (MLL-AF9)
Protocol: as §1, §2, §3, §4, §5, §6, §7, §8, §9

[3] = tested on: MV4-11; assay: Cell proliferation inhibition (CellTiter-Glo), MV4-11 cells; details: Homo sapiens, MV4-11 (MLL-AF4)
Protocol: as §1, §2, §3, §4, §5, §6, §7, §8, §9

[4] = K562, 96 h, Day 4, read-out: K-562 IC50 μM (Day 4)
[5] = K562, 168 h, Day 7, read-out: K-562 IC50 μM (Day 7)*
[6] = 96 h, Day 4, read-out: MOLM-13 Day IC50 μM (Day 4)*
[7] = 168 h, Day 7, read-out: MOLM-13 Day IC50 μM (Day 7)*
[8] = 96 h, Day 4, read-out: MV-4:11 IC50 μM (Day 4)*
[9] = 168 h, Day 7, read-out: MV-4:11 IC50 μM (Day 7)*

| Structure (SMILES) | IC50 [1, 4] [µM] | IC50 [1, 5] [µM] | IC50 [2, 6] [µM] | IC50 [2, 7] [µM] | IC50 [3, 8] [µM] | IC50 [3, 9] [µM] |
| --- | --- | --- | --- | --- | --- | --- |
| C=CC(=O)N[C@@H]1CCCN(Cc2ccnc(C(=O)Nc3ccc(-c4cc5c(N6CCOCC6)ncnc5[nH]4)c(F)c3)c2)C1 [Compound B0700-529, (R)-4-((3-acrylamidopiperidin-1-yl)methyl)-N-(3-fluoro-4-(4-morpholino-7H-pyrrolo[2,3-d]pyrimidin-6-yl)phenyl)picolinamide] | 6.14 | – | 0.351 | – | 0.969 | – |
| C=CC(=O)N[C@@H]1CCCN(Cc2ccnc(C(=O)Nc3ccc(-c4cc5c(C6CCOCC6)ncnc5[nH]4)cc3)c2)C1 [Compound B0700-516, (R)-4-((3-acrylamidopiperidin-1-yl)methyl)-N-(4-(4-(tetrahydro-2H-pyran-4-yl)-7H-pyrrolo[2,3-d]pyrimidin-6-yl)phenyl)picolinamide] | 4.34 | – | 1.56 | – | 1.5 | – |
| C=CC(=O)NC1CN(c2ccnc(NC3CC4(CCN(c5nc6c(N7CCOCC7)ncnc6[nH]5)CC4)C3)c2)C1 [Compound B0700-507, N-(1-(2-((7-(6-morpholino-9H-purin-8-yl)-7-azaspiro[3.5]nonan-2-yl)amino)pyridin-4-yl)azetidin-3-yl)acrylamide] | > 10 | – | 5.21 | – | 4.22 | – |
| C/C=C/S(=O)(=O)N[C@@H]1CCCN(Cc2ccnc(C(=O)Nc3ccc(-c4cc5c(N6CCOCC6)ncnc5[nH]4)cc3)c2)C1 [Compound B0700-550] | > 10 | – | 0.276 | – | 0.212 | – |
| Cc1cc(C)n2c1C=C1C=CC(CCC(=O)NCCCCN(C)C/C=C/C(=O)N[C@@H]3CCCN(Cc4ccnc(C(=O)Nc5ccc(-c6cc7c(N8CCOCC8)ncnc7[nH]6)cc5)c4)C3)=[N+]1[B-]2(F)F [Compound B0700-503] | 2.51 | – | 4.51 | – | 2.89 | – |
| C=CC(=O)N[C@@H]1CCCN(Cc2ccnc(C(=O)NC3CCN(c4nc5c(N6CCOCC6)ncnc5o4)CC3)c2)C1 [Compound B0700-518] | 5.3 | – | > 10 | – | > 10 | – |
| C=CC(=O)N[C@@H]1CCCN(c2cccc(C(C)S(=O)(=O)Nc3ccc(-c4cc5c(N6CCOCC6)ncnc5[nH]4)cc3)c2)C1 (stereo partly shown) [Compound B0700-545] | > 10 | – | 1.07 | – | 0.84 | – |
| C=CC(=O)N[C@@H]1CCCN(Cc2ccnc(C(=O)Nc3ccc(-c4[nH]c5ncnc(N6CCOCC6)c5c4C)cc3)c2)C1 [Compound B0700-528] | 1.18 | – | 0.462 | – | 0.464 | – |
| O=C(/C=C/Cc1cnc[nH]1)N[C@@H]1CCCN(Cc2ccnc(C(=O)Nc3ccc(-c4cc5c(N6CCOCC6)ncnc5[nH]4)cc3)c2)C1 [Compound B0700-523] | > 10 | – | 0.213 | – | 0.232 | – |

Other lines, results leading:

| IC50 [1, 4] [µM] | IC50 [1, 5] [µM] | IC50 [2, 6] [µM] | IC50 [2, 7] [µM] | IC50 [3, 8] [µM] | IC50 [3, 9] [µM] | Structure (SMILES) |
| --- | --- | --- | --- | --- | --- | --- |
| 0.744 | 0.636 | 0.154 | 0.157 | 0.218 | 0.17 | C=CC(=O)N1CCC(Nc2ccnc(C(=O)Nc3ccc(-c4cc5c(N6CCOCC6)ncnc5[nH]4)cc3)c2)CC1 [Compound B0700-616, 4-((1-acryloylpiperidin-4-yl)amino)-N-(4-(4-morpholino-7H-pyrrolo[2,3-d]pyrimidin-6-yl)phenyl)picolinamide] |
| 0.554 | 0.186 | 0.923 | 0.523 | 0.696 | 1.03 | C=CC(=O)N[C@@H]1CCCN(Cc2ccnc(C(=O)Nc3ccc(-c4cc5c(N6CCOCC6)nccc5[nH]4)cc3)c2)C1 [Compound B0700-614, (R)-4-((3-acrylamidopiperidin-1-yl)methyl)-N-(4-(4-morpholino-1H-pyrrolo[3,2-c]pyridin-2-yl)phenyl)picolinamide] |
| > 10 | > 10 | 2.85 | 2.39 | 1.4 | 1.14 | C=CC(=O)N1CCC(N2CCN(S(=O)(=O)Nc3ccc(-c4cc5c(N6CCOCC6)ncnc5[nH]4)cc3)CC2)CC1 [Compound B0700-612, 4-(1-acryloylpiperidin-4-yl)-N-(4-(4-morpholino-7H-pyrrolo[2,3-d]pyrimidin-6-yl)phenyl)piperazine-1-sulfonamide] |
| 6.04 | 11.2 | 0.632 | 0.477 | 0.495 | 0.47 | C=CC(=O)N1CCC(N2CCN(C(=O)Nc3ccc(-c4cc5c(N6CCOCC6)ncnc5[nH]4)cc3)CC2)CC1 [Compound B0700-613, 4-(1-acryloylpiperidin-4-yl)-N-(4-(4-morpholino-7H-pyrrolo[2,3-d]pyrimidin-6-yl)phenyl)piperazine-1-carboxamide] |
| 2.19 | 3.65 | 0.197 | 0.164 | 0.138 | 0.1 | C=CC(=O)N1CCCC(N2CC[C@@H](C(=O)Nc3ccc(-c4cc5c(N6CCOCC6)ncnc5[nH]4)cc3)C2)C1 (stereo partly drawn) [Compound B0700-608, (3R)-1-(1-acryloylpiperidin-3-yl)-N-(4-(4-morpholino-7H-pyrrolo[2,3-d]pyrimidin-6-yl)phenyl)pyrrolidine-3-carboxamide] |
| > 10 | – | 3.91 | – | 1.56 | – | C=CC(=O)N[C@@H]1CCCN(c2cccc(C(C)S(=O)(=O)Nc3ccc(-c4cc5c(N6CCOCC6)ncnc5[nH]4)cc3F)c2)C1 (stereo partly drawn) [Compound B0700-559, N-((3R)-1-(3-(1-(N-(2-fluoro-4-(4-morpholino-7H-pyrrolo[2,3-d]pyrimidin-6-yl)phenyl)sulfamoyl)ethyl)phenyl)piperidin-3-yl)acrylamide] |
| > 10 | – | 0.282 | – | 0.397 | – | [2H]C1([2H])OC([2H])([2H])C([2H])([2H])N(c2ncnc3[nH]c(-c4ccc(NC(=O)c5cc(CN6CCC[C@@H](NC(=O)C=C)C6)ccn5)cc4)cc23)C1([2H])[2H] [Compound B0700-601, (R)-4-((3-acrylamidopiperidin-1-yl)methyl)-N-(4-(4-(morpholino-d8)-7H-pyrrolo[2,3-d]pyrimidin-6-yl)phenyl)picolinamide] |
| > 10 | > 10 | 0.495 | 0.924 | 0.419 | 0.34 | C=CC(=O)N[C@@H]1CCCN(Cc2ccnc(C(=O)Nc3ccc(-c4cc5c(N6CCC(O)CC6)ncnc5[nH]4)cc3)c2)C1 [Compound B0700-568] |
| 0.997 | – | 0.271 | – | – | – | [2H]C([2H])=C([2H])C(=O)N[C@@H]1CCCN(Cc2ccnc(C(=O)Nc3ccc(-c4cc5c(N6CCOCC6)ncnc5[nH]4)cc3)c2)C1 [Compound B0700-557, (R)-4-((3-(acrylamido-2,3,3-d3)piperidin-1-yl)methyl)-N-(4-(4-morpholino-7H-pyrrolo[2,3-d]pyrimidin-6-yl)phenyl)picolinamide] |
| 0.74 | – | 0.35 | – | – | – | C=CC(=O)N[C@H]1CCCN(Cc2ccnc(C(=O)Nc3ccc(-c4cc5c(N6CCOCC6)ncnc5[nH]4)cc3)c2)C1 [Compound B0700-704] |
